Holding throughout (assay type): biochemical
For one experiment, the target named is T1, STEP (Homo sapiens, UniProt P54829).
T1 construct: made in house; host or cells: E. coli
T1 sequence (P54829 1-565): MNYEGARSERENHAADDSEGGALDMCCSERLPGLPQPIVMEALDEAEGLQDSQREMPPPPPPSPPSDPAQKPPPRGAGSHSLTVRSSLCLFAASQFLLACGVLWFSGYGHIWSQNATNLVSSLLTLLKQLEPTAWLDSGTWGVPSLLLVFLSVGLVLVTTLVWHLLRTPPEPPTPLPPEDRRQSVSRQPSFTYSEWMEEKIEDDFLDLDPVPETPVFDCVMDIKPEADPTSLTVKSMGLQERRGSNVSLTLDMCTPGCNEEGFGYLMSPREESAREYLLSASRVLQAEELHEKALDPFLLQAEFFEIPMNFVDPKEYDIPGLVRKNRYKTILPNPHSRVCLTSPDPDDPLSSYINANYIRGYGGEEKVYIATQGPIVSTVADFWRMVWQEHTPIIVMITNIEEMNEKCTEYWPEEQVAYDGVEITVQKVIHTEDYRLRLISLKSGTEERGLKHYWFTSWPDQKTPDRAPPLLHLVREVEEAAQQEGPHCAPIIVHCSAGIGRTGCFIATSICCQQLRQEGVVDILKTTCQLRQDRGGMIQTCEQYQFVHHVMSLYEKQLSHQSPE
Kind of experiment: Tyrosine phosphatase selectivity (pNPP substrate), STEP. Particulars: for IC50: STEP, pNPP substrate; for IC50PTP/IC50SHP2 STEP: selectivity ratio STEP over SHP2. On the procedure: (§1) This experiment evaluated the selectivity of the disclosed compounds against tyrosine phosphatases, including SHP1, HePTP, Laforin, LMWPTP, LYP, PTP1B, PRL2, SSU72, VHR, FAP1, STEP, CDC14A, CD45, MEG2, and PP5, all expressed and purified from E. coli.
(§2) Phosphatase activity was measured using p-nitrophenyl phosphate (pNPP) (Fisher Scientific) as the substrate in 50 mM 3,3-dimethylglutaric acid buffer (pH 7.0, containing 1 mM EDTA), with ionic strength adjusted to 0.15 M with NaCl. […] After 10-60 minutes, the reaction was quenched by adding 20 µL of 5 N NaOH. Wells without enzyme were used as controls for correction. The amount of the product, p-nitrophenol, was determined by measuring the absorbance at 405 nm using a Spectra MAX340 microplate spectrophotometer (Molecular Devices), with a molar extinction coefficient of 18000 M^-1cm^-1.
(§3) Data were analyzed using GraphPad Prism software. Dose-response curves were obtained by fitting data using the nonlinear S-curve regression Dose-response-inhibition equation, and IC50 values were calculated.

Another experiment addresses T2, MEG2 (Homo sapiens, UniProt P43378).
T2 construct: made in house; host or cells: E. coli
T2 sequence (P43378 1-593): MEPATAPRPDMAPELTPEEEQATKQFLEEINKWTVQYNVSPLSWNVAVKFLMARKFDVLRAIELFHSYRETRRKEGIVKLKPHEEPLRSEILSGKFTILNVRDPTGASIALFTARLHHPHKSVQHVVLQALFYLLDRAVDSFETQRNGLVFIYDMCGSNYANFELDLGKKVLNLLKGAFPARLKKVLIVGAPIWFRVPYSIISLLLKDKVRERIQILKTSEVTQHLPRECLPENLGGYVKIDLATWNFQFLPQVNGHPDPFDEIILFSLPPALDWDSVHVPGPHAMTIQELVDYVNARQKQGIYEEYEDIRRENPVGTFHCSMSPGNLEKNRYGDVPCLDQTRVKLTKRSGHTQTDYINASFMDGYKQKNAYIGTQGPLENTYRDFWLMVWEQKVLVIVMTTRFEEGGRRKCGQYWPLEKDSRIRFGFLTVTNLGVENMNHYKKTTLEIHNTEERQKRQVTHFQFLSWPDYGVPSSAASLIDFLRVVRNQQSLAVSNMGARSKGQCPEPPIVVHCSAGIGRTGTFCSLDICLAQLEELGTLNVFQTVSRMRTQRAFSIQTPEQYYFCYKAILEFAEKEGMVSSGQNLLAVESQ
Kind of experiment: Tyrosine phosphatase selectivity (pNPP substrate), MEG2. The settings on record: for IC50: MEG2, pNPP substrate; for IC50PTP/IC50SHP2 MEG2: selectivity ratio MEG2 over SHP2. The method, then: as §1, §2, §3

The target of the next experiment is T3, LYP (Homo sapiens, UniProt Q9Y2R2).
T3 construct: made in house; host or cells: E. coli
T3 sequence (Q9Y2R2 1-807): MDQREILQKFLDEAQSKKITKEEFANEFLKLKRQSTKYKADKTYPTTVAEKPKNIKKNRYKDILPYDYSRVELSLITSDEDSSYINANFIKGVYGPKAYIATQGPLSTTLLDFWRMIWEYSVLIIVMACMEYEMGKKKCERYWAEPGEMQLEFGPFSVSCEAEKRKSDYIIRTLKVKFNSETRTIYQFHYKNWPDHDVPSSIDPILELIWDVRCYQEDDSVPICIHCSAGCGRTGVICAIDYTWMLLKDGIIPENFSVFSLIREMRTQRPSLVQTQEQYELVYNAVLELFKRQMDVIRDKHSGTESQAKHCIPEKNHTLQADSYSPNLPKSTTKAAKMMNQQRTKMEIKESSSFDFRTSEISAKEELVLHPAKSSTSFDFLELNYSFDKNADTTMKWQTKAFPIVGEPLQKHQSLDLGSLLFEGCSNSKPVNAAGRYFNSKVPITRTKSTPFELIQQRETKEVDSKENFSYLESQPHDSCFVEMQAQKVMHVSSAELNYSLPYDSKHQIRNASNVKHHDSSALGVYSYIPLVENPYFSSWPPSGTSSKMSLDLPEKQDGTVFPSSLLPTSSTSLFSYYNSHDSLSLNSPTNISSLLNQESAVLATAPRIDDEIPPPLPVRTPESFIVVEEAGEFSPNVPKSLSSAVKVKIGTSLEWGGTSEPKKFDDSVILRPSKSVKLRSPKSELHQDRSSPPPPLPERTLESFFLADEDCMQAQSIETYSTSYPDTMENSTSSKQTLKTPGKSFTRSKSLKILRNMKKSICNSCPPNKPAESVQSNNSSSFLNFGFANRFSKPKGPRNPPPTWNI
Kind of experiment: Tyrosine phosphatase selectivity (pNPP substrate), LYP. The settings on record: for IC50: LYP, pNPP substrate; for IC50PTP/IC50SHP2 LYP: selectivity ratio LYP over SHP2. On the procedure: as §1, §2, §3

Bounds are passed on as bounds.

The source of these data is patent EP4741383A1, “COMPOUND AND USE THEREOF AS ANTI-CANCER DRUG” (Tyligand Bioscience (Shanghai) Limited, priority 2023, dated 2025).

Usually IC50 stands for the concentration that gives 50% inhibition. Turning to `O=C(Nc1ccc(-c2ccsc2)cc1)C(=O)Nc1ccc(-c2cc3cc(F)c(-c4nnn[nH]4)cc3n2C2CCC2)cc1` [Example 4], at STEP, the IC50 turned out to be 4500 nM and the “IC50PTP/IC50SHP2 STEP” value is recorded as 155.2. Moreover, on MEG2, the 50% inhibitory concentration (IC50) was 22100 nM and the “IC50PTP/IC50SHP2 MEG2” value is on record as 762.1. Moreover, on LYP, the half-maximal inhibitory concentration (IC50) is 500 nM and the “IC50PTP/IC50SHP2 LYP” value is 17.2.

On to `CC1(n2c(-c3ccc(NC(=O)C(=O)Nc4ccc(N5CCC6(CCOC6)CC5)cc4)cc3)cc3cc(F)c(-c4nnn[nH]4)cc32)CCC1` [Example 68], for which, on STEP, the 50% inhibitory concentration (IC50) amounted to 8230 nM and the “IC50PTP/IC50SHP2 STEP” value was 171.5. In addition, at MEG2, the concentration for half-maximal inhibition (IC50) worked out at 890 nM and the “IC50PTP/IC50SHP2 MEG2” value is on record as 18.5. For the same molecule, at LYP, the half-maximal inhibitory concentration (IC50) is 1540 nM and the “IC50PTP/IC50SHP2 LYP” value worked out at 32.1.

As for `O=C(Nc1ccc(-c2cc3cc(F)c(-c4nnn[nH]4)cc3n2C2CCC2)cc1)C(=O)Nc1ccc(N2CCOCC2)cc1` [Example 47], at STEP, the IC50 turned out to be 770 nM and the “IC50PTP/IC50SHP2 STEP” value is 12.2. Further, at MEG2, the IC50 is 990 nM and the “IC50PTP/IC50SHP2 MEG2” value is reported as 15.7. For the same molecule, at LYP, the IC50 amounted to 189 nM and the “IC50PTP/IC50SHP2 LYP” value worked out at 3.0.

On to `O=C(Nc1ccc(-c2ccsc2)cc1)C(=O)Nc1ccc(-c2cc3cc(F)c(-c4nnn[nH]4)nc3n2C2CCC2)cc1` [Example 132], for which, at STEP, half-maximal inhibition (IC50) was put at 10600 nM and the “IC50PTP/IC50SHP2 STEP” value is given as 392.6. Further, at MEG2, half-maximal inhibition (IC50) required 15100 nM and the “IC50PTP/IC50SHP2 MEG2” value turned out to be 559.3. At LYP, the concentration for half-maximal inhibition (IC50) is 500 nM and the “IC50PTP/IC50SHP2 LYP” value is 18.5.

As for `Cn1cc(-c2ccc(NC(=O)C(=O)Nc3ccc(-c4cc5cc(F)c(-c6noc(=O)[nH]6)cc5n4C4CCC4)cc3)cc2)cn1` [Example 123], at STEP, the IC50 was 15500 nM and the “IC50PTP/IC50SHP2 STEP” value is 109.9. In addition, at MEG2, the IC50 amounted to 2410 nM and the “IC50PTP/IC50SHP2 MEG2” value was 17.1. Also, at LYP, the IC50 is 1070 nM and the “IC50PTP/IC50SHP2 LYP” value is on record as 7.6.

Turning to `O=C(Nc1ccc(-c2cc3cc(F)c(-c4nnn[nH]4)cc3n2C2CCC2)cc1)C(=O)Nc1ccc(N2CCC3(CCOC3)CC2)cc1` [Example 67], at STEP, the midpoint of inhibition, the IC50, lay at 6940 nM and the “IC50PTP/IC50SHP2 STEP” value is recorded as 204.1. At MEG2, it took 1770 nM to reach half-maximal inhibition (IC50) and the “IC50PTP/IC50SHP2 MEG2” value amounted to 52.0. At LYP, the 50% inhibitory concentration (IC50) was 76 nM and the “IC50PTP/IC50SHP2 LYP” value amounted to 2.2.

For `O=C(Nc1ccc(-c2ccsc2)cc1)C(=O)Nc1ccc(-c2cc3cnc(-c4nnn[nH]4)nc3n2C2CCC2)cc1` [Example 131], on STEP, the IC50 was 8400 nM and the “IC50PTP/IC50SHP2 STEP” value is recorded as 323.1. Moreover, at MEG2, the IC50 was determined as 9900 nM and the “IC50PTP/IC50SHP2 MEG2” value worked out at 380.8. Further, on LYP, it took 500 nM to reach half-maximal inhibition (IC50) and the “IC50PTP/IC50SHP2 LYP” value turned out to be 19.2.

Take `O=C(Nc1ccc(-c2ccsc2)cc1)C(=O)Nc1ccc(-c2oc3cc(F)c(-c4nnn[nH]4)cc3c2C2CCC2)cc1` [Example 130]: at STEP, the IC50 is less than 3000 nM and the “IC50PTP/IC50SHP2 STEP” value was 120. For the same molecule, on MEG2, the IC50 is less than 3000 nM and the “IC50PTP/IC50SHP2 MEG2” value is on record as 120. Besides, on LYP, half-maximal inhibition (IC50) required 1200 nM and the “IC50PTP/IC50SHP2 LYP” value is 48.

`O=C(Nc1ccc(-c2oc3cc(F)c(-c4nnn[nH]4)cc3c2C2CCC2)cc1)C(=O)Nc1ccc(N2CCC3(CCOC3)CC2)cc1` [Example 125]: on STEP, 6620 nM corresponded to half-maximal inhibition (IC50) and the “IC50PTP/IC50SHP2 STEP” value is listed as 129.8. On MEG2, the midpoint of inhibition, the IC50, lay at 8540 nM and the “IC50PTP/IC50SHP2 MEG2” value is listed as 167.5. On LYP, 2500 nM corresponded to half-maximal inhibition (IC50) and the “IC50PTP/IC50SHP2 LYP” value is given as 49.0.

As to `Cn1c(-c2cccc(NC(=O)C(=O)Nc3ccc(-c4ccsc4)cc3)c2)c(I)c2cc(C(=O)O)c(O)cc21` [Example 11a-1, reference compound], at STEP, half-maximal inhibition (IC50) required 4000 nM and the “IC50PTP/IC50SHP2 STEP” value came out at 37.0. Besides, at LYP, the 50% inhibitory concentration (IC50) amounted to 1050 nM and the “IC50PTP/IC50SHP2 LYP” value was found to be 9.7.

Turning to `Cn1cc(-c2ccc(NC(=O)C(=O)Nc3ccc(-c4cc5cc(F)c(-c6nnc(C(F)(F)F)[nH]6)cc5n4C4CCC4)cc3)cc2)cn1` [Example 124], on STEP, the IC50 is greater than 100000 nM and the “IC50PTP/IC50SHP2 STEP” value worked out at 139.7. Besides, on MEG2, the concentration for half-maximal inhibition (IC50) was greater than 100000 nM and the “IC50PTP/IC50SHP2 MEG2” value is listed as 139.7. At LYP, the IC50 was greater than 100000 nM and the “IC50PTP/IC50SHP2 LYP” value came out at 139.7.

For the molecule `O=C(Nc1ccc(-c2cc3cc(F)c(-c4nnn[nH]4)cc3n2C2CCC2)cc1)C(=O)Nc1ccc(N2CC3COCC3C2)cc1` (stereo not shown) [Example 114], on STEP, the IC50 is 1830 nM and the “IC50PTP/IC50SHP2 STEP” value amounted to 25.4. At MEG2, the IC50 was determined as 1660 nM and the “IC50PTP/IC50SHP2 MEG2” value is given as 23.0. On LYP, 100 nM corresponded to half-maximal inhibition (IC50) and the “IC50PTP/IC50SHP2 LYP” value came out at 1.3.

On to `O=C(Nc1ccc(-c2ccsc2)cc1)C(=O)Nc1ccc(-c2cc3ccc(-c4nnn[nH]4)nc3n2C2CCC2)cc1` [Example 129], for which, at STEP, the IC50 is less than 3000 nM and the “IC50PTP/IC50SHP2 STEP” value worked out at 50.8. Moreover, at MEG2, the IC50 came out at 7200 nM and the “IC50PTP/IC50SHP2 MEG2” value stood at 122.0. At LYP, the IC50 came to 1200 nM and the “IC50PTP/IC50SHP2 LYP” value was 20.3.
